# In article doi:10.1101/2022.07.25.501481v1 (biorxiv, 2022):
# Biological target: T1, BT4193 (Bacteroides thetaiotaomicron, UniProt Q8A028)
# T1 sequence (Q8A028 20-736): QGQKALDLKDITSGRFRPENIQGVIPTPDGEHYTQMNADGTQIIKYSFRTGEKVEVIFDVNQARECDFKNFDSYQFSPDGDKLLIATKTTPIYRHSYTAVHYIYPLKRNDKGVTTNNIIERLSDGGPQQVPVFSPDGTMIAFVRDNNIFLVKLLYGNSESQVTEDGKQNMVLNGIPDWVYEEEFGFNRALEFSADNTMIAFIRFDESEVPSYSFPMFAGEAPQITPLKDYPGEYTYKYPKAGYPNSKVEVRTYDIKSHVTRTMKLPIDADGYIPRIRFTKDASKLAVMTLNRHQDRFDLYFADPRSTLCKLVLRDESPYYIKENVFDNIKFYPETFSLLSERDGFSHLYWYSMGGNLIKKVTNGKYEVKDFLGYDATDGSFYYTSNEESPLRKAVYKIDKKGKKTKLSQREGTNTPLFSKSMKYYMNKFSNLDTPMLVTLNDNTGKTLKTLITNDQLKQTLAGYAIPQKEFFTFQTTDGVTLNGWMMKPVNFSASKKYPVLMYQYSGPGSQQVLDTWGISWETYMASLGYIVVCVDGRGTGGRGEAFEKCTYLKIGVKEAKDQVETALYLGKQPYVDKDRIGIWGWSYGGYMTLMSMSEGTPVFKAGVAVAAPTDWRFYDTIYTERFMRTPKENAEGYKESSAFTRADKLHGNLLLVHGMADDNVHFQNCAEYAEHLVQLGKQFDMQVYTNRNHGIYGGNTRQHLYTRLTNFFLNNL
# Assay: GP-AMC cleavage fluorescence, dose-response four-parameter fit
# Format: biochemical
row,SMILES,IC50 [nM]
1,CC#CCn1c(N2CCC[C@@H](N)C2)nc2c1c(=O)n(Cc1nc(C)c3ccccc3n1)c(=O)n2C [linagliptin],445 ± 23
2,N#C[C@@H]1C[C@@H]2C[C@@H]2N1C(=O)[C@@H](N)C12CC3CC(CC(O)(C3)C1)C2 [saxagliptin],10.3 ± 0.7
3,N[C@@H](CC(=O)N1CCn2c(nnc2C(F)(F)F)C1)Cc1cc(F)c(F)cc1F [sitagliptin],2150 ± 162
4,CC(C)[C@H](N)C(=O)N1CCC[C@H]1B(O)O [talabostat],12.4 ± 0.1
